Reference: US20070134744A1, “Epothilone resistant cell lines” (priority 2000, published 2007)
“Also recorded” adds a separate entry of the source.

Tests used:
298/D4/40 cells [1] = assay: Support of growth of epothilone A-dependent cells; assay type: cell-based, human; conditions: replacing epothilone A
Experimental: The epothilone resistant cell lines, EpoA320-80C, EpoA320/ND, 298/D4/40, 297/C5/0 and 315/sc5.9 are generated as disclosed above. […] A subclone, 298/D4/40, is adapted to grow in the presence of 40 nM epothilone A administered twice weekly (i.e. at every medium change). […] Furthermore, when 298/D4/40 cells are deprived of epothilone A, they growth arrest in the G2/M phase of the cell cycle and eventually die by apoptosis. […] Thus, this cell line could be employed in a drug screen, in which compounds with a potential microtubule-stabilizing mechanism could be identified by virtue of supporting the growth of epothilone A-deprived 298/D4/40 cells (see below). Nevertheless, upon prolonged incubation in the absence of epothilone A, we are able to isolate a subline that is still partially resistant to epothilone A, but has lost the drug-dependent phenotype of 298/D4/40, likely due to a cornpensating mutation. A subclone of this cell line, 297/C5/0, is used for further analyses.
Potential hits would be those that support the growth of 298/D4/40 cells similar to epothilone A (or paclitaxel) that could be included as a positive control in this assay.

KB-8511 cells [2] = assay type: cell-based, human; conditions: for RF (resistance factor: IC50 resistant cell line / IC50 parental KB-31): KB-8511 (Colch selected), 72 hrs, average of three experiments; for resistance profile in words: KB-8511 vs parental KB-31
Experimental: (§1) Data in Table 4 are gathered according to the following methods: Cells (1×10^3) are seeded in 96-well plates and allowed to adhere for 24 hrs. Compounds are then added as two-fold serial dilutions and incubation continued for an additional 72 hrs. Cell numbers at the beginning and at the end of the experiment are estimated by methylene blue staining of cellular protein mass according to conventional methods. The net mass increase of vehicle-treated cells is set as 100% growth. The IC50 is determined as the drug concentration that leads to half-maximal growth inhibition compared to the control. The resistance factor (RF) for a particular drug is calculated by dividing the IC50 determined on the resistant cell line by that determined on the parental KB-31 cells. Data are presented as average±standard deviation (SD) of three separate experiments, except na=not applicable (n<3). Colchicine-selected KB-8511 cells overexpressing P-glycoprotein served as a reference for the classical multi-drug-resistant phenotype.

298/D4/40 cells [3] = assay type: cell-based, human; conditions: for RF (resistance factor: IC50 resistant cell line / IC50 parental KB-31): 298/D4/40 (EpoA selected), 72 hrs, in the presence of 40 nM epothilone A; for resistance profile in words: 298/D4/40 vs parental KB-31
Experimental: (§2) Anti-proliferative assays are performed basically as described (Meyer et al., Int. J. Cancer 43:851 (1989)). Briefly, cells are seeded at 1.5×10^3 cells/well into 96-well microtiter plates and allowed to adhere by incubation overnight. Compounds are added in serial dilutions on day 1. The plates are then incubated for an additional 3 days, after which the cells are fixed with 3.3% v/v glutaraldehyde, washed with water and stained with 0.05% w/v methylene blue according to conventional methods. After washing, the dye is eluted with 3% HCl and the optical density measured at 665 nm with a SpectraMax Plus (Molecular Devices, Sunnyvale, Calif.) according to manufacturers instructions. IC50 values are determined by mathematical curve-fitting using the SoftPro2.6.1 program (Molecular Devices, Sunnyvale, Calif.) using the formula (OD treated−OD start)/(OD control−OD start)×100. […] IC50 determinations with the cell line 298/D4/40 are performed in the presence of 40 nM epothilone A.
as §1

315/sc5.9 cells = assay type: cell-based, human; conditions: for RF (resistance factor: IC50 resistant cell line / IC50 parental KB-31): 315/sc5.9 (EpoB selected), 72 hrs, average of three experiments
Experimental: as §2, §1

297/C5/0 cells = assay type: cell-based, human; conditions: for RF (resistance factor: IC50 resistant cell line / IC50 parental KB-31): 297/C5/0 (EpoA selected), 72 hrs, average of three experiments; for resistance profile in words: 297/C5/0 vs parental KB-31
Experimental: as §2, §1

MDA-MB-435 cells = assay: MTS growth inhibition assay; assay type: cell-based
Experimental: (§3) Growth inhibition may be analyzed using conventional methods, for example a MTS assay (PROMEGA, Wis.) may be used. In this assay approximately 4000 cells per well are seeded in 96 well plates in MEM supplemented with 10% fetal calf serum and incubated at 37° C. in 5.0% CO2. After 24 hours, dilutions of drug (concentration range used is between 1 nM and 1000 nM) are added and cells are allowed to incubate with drug for an additional 72 hours. The MTS reagent mixed with PMS (MTS:PMS 20:1 according to manufacturer's instructions) is then added and absorbance quantitated using a Thermomax microplate reader system according to conventional methods (Molecular Devices, Sunnyvale, Calif.). […] Six assays per drug per plate are performed.
(§4) Thus, at least two potential mechanisms of epothilone A resistance may exist—a lower resistance mechanism that is cross-resistant to TAXOL® and a higher, epothilone A specific resistance mechanism.

EA150 cells = assay: MTS growth inhibition assay; assay type: cell-based; conditions: for IC50: MTS, 72 hours drug, Table 1
Experimental: as §3, §4

EA10 cells = assay: MTS growth inhibition assay; assay type: cell-based; conditions: MTS, 72 hours drug, Table 1
Experimental: as §3, §4

EA60 cells = assay: MTS growth inhibition assay; assay type: cell-based; conditions: MTS, 72 hours drug, Table 1
Experimental: as §3, §4

EA20 cells [4] = assay: MTS growth inhibition assay; assay type: cell-based; conditions: MTS, 72 hours drug, Table 1
Experimental: as §3, §4

EA40 cells = assay: MTS growth inhibition assay; assay type: cell-based; conditions: for IC50: EA40 cells
Experimental: as §3, with “performed. […]” for “performed.”
(§5) As such, epothilone resistant cells would have some degree of cross-resistance to other P-gp substrates that could be reversed by P-gp inhibitors. To investigate this possibility, the cytotoxicity of the P-gp substrates, vincristine, doxorubicine and vinblastine is determined against epothilone A resistant cells using the MTS assay. […] When EA20 and resistant MDA/T0.3 cells are incubated with TAXOL® or epothilone A in the presence of [3′-Desoxy-3′-oxo-MeBmt]^1-[Val]^2-Ciclosporin (PSC-833; a P-gp inhibitor which is disclosed in U.S. Pat. No. 5,525,590), the resistance of MDA/T0.3 cells to TAXOL® is reversed but no effect on the resistance of EA20 to epothilone A is observed.

MDA/T0.3 cells [5] = assay: Reversal of resistance by P-gp inhibitor (MTS assay); assay type: cell-based; conditions: MDA/T0.3 cells incubated with TAXOL in the presence of PSC-833
Experimental: as §3
(§6) As such, epothilone resistant cells would have some degree of cross-resistance to other P-gp substrates that could be reversed by P-gp inhibitors. To investigate this possibility, the cytotoxicity of the P-gp substrates, vincristine, doxorubicine and vinblastine is determined against epothilone A resistant cells using the MTS assay. […]

EA20 cells [6] = assay: as above; assay type: cell-based; conditions: EA20 cells incubated with epothilone A in the presence of PSC-833
Experimental: as §3, §6

MDA/T0.3 cells [7] = assay: MTS growth inhibition assay; assay type: cell-based; conditions: MDA/T0.3 cells, P-gp substrates; Table 2; read-out: IC50
Experimental: Growth inhibition may be analyzed using conventional methods, for example a MTS assay (PROMEGA, Wis.) may be used. In this assay approximately 4000 cells per well are seeded in 96 well plates in MEM supplemented with 10% fetal calf serum and incubated at 37° C. in 5.0% CO2. […] The MTS reagent mixed with PMS (MTS:PMS 20:1 according to manufacturer's instructions) is then added and absorbance quantitated using a Thermomax microplate reader system according to conventional methods (Molecular Devices, Sunnyvale, Calif.). […] Six assays per drug per plate are performed.
as §5
MDA/T0.3 is a clonal subline of MDA-MB-435 cells selected by increasing exposure of MDA-MB-435 cells to TAXOL®. MDA/T0.3 cells express high levels of P-glycoprotein and are resistant to a variety of chemically and functionally unrelated compounds. MDA/T0.3 cells could be sensitized to a variety of cytotoxic agents by treatment with the P-glycoprotein reversing agent PSC-833.

KB-8511 cells [8] = conditions: cited from earlier work

Structure (SMILES)	support of growth of epothilone A-dependent cell line (298/D4/40 cells [1])	RF (resistance factor: IC50 resistant cell line / IC50 parental KB-31) (KB-8511 cells [2])	resistance profile in words (KB-8511 cells [2])	RF (resistance factor: IC50 resistant cell line / IC50 parental KB-31) (298/D4/40 cells [3])	resistance profile in words (298/D4/40 cells [3])	RF (resistance factor: IC50 resistant cell line / IC50 parental KB-31) (315/sc5.9 cells)	RF (resistance factor: IC50 resistant cell line / IC50 parental KB-31) (297/C5/0 cells)	resistance profile in words (297/C5/0 cells)	IC50 (EA150 cells)	IC50 (EA10 cells)	IC50 (EA60 cells)	IC50 (EA20 cells [4])	IC50 (EA40 cells; MTS, 72 hours drug, Table 1)	also measured
C/C(=C\c1csc(C)n1)[C@@H]1C[C@@H]2O[C@]2(C)CCC[C@H](C)[C@H](O)[C@@H](C)C(=O)C(C)(C)[C@@H](O)CC(=O)O1 [Epothilone B, epothilone B]	able to substitute for epothilone A	0.9	retain full activity	9.2	either partially or fully cross-resistant	3.1	7.7	either partially or fully cross-resistant	15 ± 3.1 nM	3 ± 1.4 nM	10 ± 4.2 nM	6 ± 2.9 nM	8 ± 3.5 nM	resistance (315/sc5.9 cells; 315/sc5.9 vs parental KB-31): 3.1 fold; IC50 (MDA-MB-435 cells; MTS, 72 hours drug, Table 1): 2 ± 0.8 nM; resistance profile in words (EA150 cells): very little resistance
C/C=C/C[C@@H](C)C(=O)[C@H]1C(=O)N[C@@H](C(C)C)C(=O)N(C)CC(=O)N(C)[C@@H](CC(C)C)C(=O)N[C@@H](C(C)C)C(=O)N(C)[C@@H](CC(C)C)C(=O)N[C@@H](C)C(=O)N[C@H](C)C(=O)N(C)[C@@H](CC(C)C)C(=O)N(C)[C@@H](CC(C)C)C(=O)N(C)[C@@H](C(C)C)C(=O)N1C [PSC-833, [3′-Desoxy-3′-oxo-MeBmt]^1-[Val]^2-Ciclosporin]	–	–	–	–	–	–	–	–	–	–	–	–	–	effect on resistance to TAXOL (MDA/T0.3 cells [5]): reversed; effect on resistance to epothilone A (EA20 cells [6]): no effect
CC(=O)O[C@H]1C(=O)[C@@]2(C)[C@H]([C@H](OC(=O)c3ccccc3)[C@]3(O)C[C@H](OC(=O)[C@H](O)[C@@H](NC(=O)c4ccccc4)c4ccccc4)C(C)=C1C3(C)C)[C@]1(OC(C)=O)CO[C@@H]1C[C@@H]2O [Paclitaxel, paclitaxel]	able to substitute for epothilone A	209.6	resistant	200.1	either partially or fully cross-resistant; also recorded: full cross-resistance	1.4	98.3	either partially or fully cross-resistant; also recorded: full cross-resistance	34 ± 2.6 nM	13 ± 3.1 nM	27 ± 3.1 nM	22 ± 4 nM	23 ± 4 nM	resistance profile in words (315/sc5.9 cells; 315/sc5.9 vs parental KB-31): marginal cross-resistance; IC50 (MDA-MB-435 cells; Homo sapiens, MTS, 72 hours drug, Table 1): 7.5 ± 3 nM; IC50 (MDA-MB-435 cells; Homo sapiens, P-gp substrates, Table 2): 7.5 ± 3 nM; IC50 (EA40 cells; P-gp substrates, Table 2): 21 ± 3 nM; resistance profile in words (EA40 cells; EA40 vs MDA-MB-435 / EA150): equally resistant; IC50 (MDA/T0.3 cells [7]): 540 ± 100 nM
COc1cc2c(c(OC)c1OC)-c1ccc(OC)c(=O)cc1[C@@H](NC(C)=O)CC2 [colchicine]	–	–	–	–	–	–	–	–	–	–	–	–	–	relative resistance compared to KB-31 cells (KB-8511 cells [8]): ~40 fold
